In patent US6890959B2, “Aminomethyl-phenyl-cyclohexanone derivatives” (Gruenenthal GmbH, priority 2000, dated 2005):
Where a name gives a salt, the structure may show the parent alone.

These molecules were tested on Male NMRI mice (assay: phenylquinone-induced writhing test in mice). Conditions: 10 mg/kg i.v.; phenylquinone i.p. 10 minutes after compound; writhing counted 5-20 minutes after phenylquinone.
Assay type: in vivo
Method: The antinociceptive activity of the compounds according to the invention was investigated in mice in a phenylquinone-induced writhing test, as modified by I. C. Hendershot, J. Forsaith, J. Pharmacol. Exp. Ther. 125, 237-240 (1959). Male NMRI mice weighing 25-30 g were used. Groups of 10 animals per substance dose received 0.3 ml/mouse of a 0.02% aqueous solution of phenylquinone (phenylbenzoquinone, Sigma, Deisenhofen; preparation of the solution with the addition of 5% ethanol and storage in a water bath at 45° C.) administered intraperitoneally 10 minutes after intravenous administration of a compound according to the invention. The animals were placed individually in observation cages. The number of pain-induced stretching movements (so-called writhing reactions, i.e. straightening of the body with stretching of the hind extremities) was counted by means of a push-button counter for 5-20 minutes after the administration of phenylquinone. Animals which received physiological saline solution i.v. and […]. were also used as a control.
All substances were tested in a standard dose of 10 mg/kg. The percentage inhibition (% inhibition) of the writhing reactions by a substance was calculated according to the following equation: % inhibition=100−[WR treated animals/WR control×100]

Question: `COc1cccc(C2CC(=O)CCC2CN(C)C)c1` (racemic) [Compound 2, rac-cis-[4-Dimethylaminomethyl-3-(3-methoxy-phenyl)-cyclohexanone]hydrochloride] was tested. Which “% inhibition of the writhing reactions” value did it give?
Answer: The value was 96%.

Question: How did the “% inhibition of the writhing reactions” value turn out when “rac-cis-[4-Dimethylaminomethyl-3-(3-hydroxy-phenyl)-cyclohexanone [Compound 4]” was run?
Answer: The value was 100%.

Question: Which “% inhibition of the writhing reactions” value does the source give for “rac-trans-[4-dimethylaminomethyl-3-(3-methoxy-phenyl)-cyclohexanone]hydrochloride [Compound 3]” here?
Answer: Its value is 92%.
